Where two headings read alike, the source gives them in different places.
How the values were obtained:
[1] = system: EMRSA strains, vancomycin resistant subpopulations, Linzolid resistant strains; assay: Checkerboard MIC / FIC / FIX of vancomycin and Aurograb (Tables 9, 10); format: cell-based, S. aureus; conditions: for MIC In combination: VAN with Aurograb; for MIC: Staphylococcus aureus
Protocol: In order to determine the Minimum Inhibitory Concentration (MIC), the Fractional Inhibitory Concentration (FIC) and the FIX (fractional inhibitory index), the following was method was used.
The cells were diluted in Isosensitest Broth (Oxoid, UK) to give a final inoculum of […] cells per mL. […] To this was added exogenous Aurograb in the range 0.3-25 μg/ml in a checkerboard formation. A negative control series was also prepared containing Aurograb formulation buffer alone. Cultures were incubated for 48 hours at 37° C.
The minimum inhibitory concentration (MIC) was defined as the lowest concentration of agent at which no bacterial growth occurred and was determined by spectrophotometric evaluation of the lack of turbidity (growth) in culture.
Fractional inhibitory concentrations (FIC) and FIX values were calculated. Synergistic activity between the two agents was defined as an FIX value ≦0.5. Indifferent activity was defined as a value of 0.5-4, and a value of ≧4 defined antagonism.
The MIC (Alone) column indicates the minimum inhibitory concentration of the agent when administered alone. The MIC (In combination) column indicates the minimum inhibitory concentration of each drug when used in combination.

[2] = system: EMRSA-15; format: in vivo, S. aureus; conditions: for Survivors at 24 h (n = 10): 8×10^7 cfu; for Mortality: 10 mice
Protocol: Method: 60 female CD-I mice (22-24 g) were given S. aureus (a fresh clinical isolate of EMRSA-15) at a dose of 8×10^7 cfu in a 100 μl iv bolus.
All mice were terminated at 48 hours for culture of kidney, liver and spleen. Mice fatalities prior to the 48 hour cull were not subject to organ colony counts.

[3] = system: EMRSA-15; format: in vivo, S. aureus; conditions: Group 3: Vancomycin 6 mg/kg alone iv
Protocol: Methods: 60 female CD-1 mice (22-24 g) were given 1×10^7 cfu of EMRSA-15 as a 100 μl iv bolus.
All mice were terminated at 48 hours for culture of kidney, liver and spleen.
Results: expressed as log cfu per gram of tissue, unless the majority of mice (>5) were cleared (ie organs were culture-negative). N/A=not applicable. (Table 7)

CN[C@H](CC(C)C)C(=O)N[C@H]1C(=O)N[C@@H](CC(N)=O)C(=O)N[C@H]2C(=O)N[C@H]3C(=O)N[C@H](C(=O)N[C@H](C(=O)O)c4cc(O)cc(O)c4-c4cc3ccc4O)[C@H](O)c3ccc(c(Cl)c3)Oc3cc2cc(c3O[C@@H]2O[C@H](CO)[C@@H](O)[C@H](O)[C@H]2O[C@H]2C[C@](C)(N)[C@H](O)[C@H](C)O2)Oc2ccc(cc2Cl)[C@H]1O [Vancomycin, vancomycin]
MIC In combination ([1]; EMRSA strain 1): 0.03 µg/mL
MIC In combination ([1]; EMRSA strain 1A): 1 µg/mL
MIC In combination ([1]; EMRSA strain 2): 0.03 µg/mL
MIC In combination ([1]; EMRSA strain 2A): 1 µg/mL
MIC In combination ([1]; EMRSA strain 3): 0.03 µg/mL
MIC In combination ([1]; EMRSA strain 4): 0.03 µg/mL
MIC In combination ([1]; EMRSA strain 5): 0.03 µg/mL
MIC In combination ([1]; EMRSA strain 6): 0.125 µg/mL
MIC In combination ([1]; EMRSA strain 7): 0.03 µg/mL
MIC In combination ([1]; EMRSA strain 8): 0.03 µg/mL
MIC In combination ([1]; EMRSA strain 8A): 0.03 µg/mL
MIC In combination ([1]; EMRSA strain 9): 0.0125 µg/mL
MIC In combination ([1]; EMRSA strain 10): 0.03 µg/mL
MIC In combination ([1]; EMRSA strain 11): 0.03 µg/mL
MIC In combination ([1]; EMRSA strain 11A): 1 µg/mL
MIC In combination ([1]; EMRSA strain 12): 0.03 µg/mL
MIC In combination ([1]; EMRSA strain 12A): 0.03 µg/mL
MIC In combination ([1]; EMRSA strain 13): 0.03 µg/mL
MIC In combination ([1]; EMRSA strain 14): 0.03 µg/mL
MIC In combination ([1]; EMRSA strain 15): 0.03 µg/mL
MIC In combination ([1]; EMRSA strain 15A): 0.03 µg/mL
MIC In combination ([1]; EMRSA strain 16): 0.03 µg/mL
MIC In combination ([1]; EMRSA strain 17): 1 µg/mL
MIC In combination ([1]; NARSA 1 (Hiramatsu)): 2 µg/mL
MIC In combination ([1]; NARSA 2 (Hiramatsu)): 0.5 µg/mL
MIC In combination ([1]; NARSA 12 (France)): 1 µg/mL
MIC In combination ([1]; NARSA 17 (New York)): 2 µg/mL
MIC In combination ([1]; NARSA 119 (Linezolid R)): 1 µg/mL
MIC In combination ([1]; NARSA 120 (Linezolid R)): 1 µg/mL
MIC In combination ([1]; NARSA 121 (Linezolid R)): 1 µg/mL
MIC ([1]; read-out: MIC Alone, EMRSA strain 1): 0.5 µg/mL
MIC ([1]; read-out: MIC Alone, EMRSA strain 1A): 8 µg/mL
MIC ([1]; read-out: MIC Alone, EMRSA strain 2): 0.5 µg/mL
MIC ([1]; read-out: MIC Alone, EMRSA strain 2A): 8 µg/mL
MIC ([1]; read-out: MIC Alone, EMRSA strain 3): 0.5 µg/mL
MIC ([1]; read-out: MIC Alone, EMRSA strain 4): 0.5 µg/mL
MIC ([1]; read-out: MIC Alone, EMRSA strain 5): 0.5 µg/mL
MIC ([1]; read-out: MIC Alone, EMRSA strain 6): 0.5 µg/mL
MIC ([1]; read-out: MIC Alone, EMRSA strain 7): 0.5 µg/mL
MIC ([1]; read-out: MIC Alone, EMRSA strain 8): 0.5 µg/mL
MIC ([1]; read-out: MIC Alone, EMRSA strain 8A): 0.5 µg/mL
MIC ([1]; read-out: MIC Alone, EMRSA strain 9): 0.5 µg/mL
MIC ([1]; read-out: MIC Alone, EMRSA strain 10): 0.5 µg/mL
MIC ([1]; read-out: MIC Alone, EMRSA strain 11): 0.5 µg/mL
MIC ([1]; read-out: MIC Alone, EMRSA strain 11A): 4 µg/mL
MIC ([1]; read-out: MIC Alone, EMRSA strain 12): 0.5 µg/mL
MIC ([1]; read-out: MIC Alone, EMRSA strain 12A): 0.5 µg/mL
MIC ([1]; read-out: MIC Alone, EMRSA strain 13): 0.5 µg/mL
MIC ([1]; read-out: MIC Alone, EMRSA strain 14): 0.5 µg/mL
MIC ([1]; read-out: MIC Alone, EMRSA strain 15): 0.5 µg/mL
MIC ([1]; read-out: MIC Alone, EMRSA strain 15A): 0.5 µg/mL
MIC ([1]; read-out: MIC Alone, EMRSA strain 16): 0.5 µg/mL
MIC ([1]; read-out: MIC Alone, EMRSA strain 17): 4 µg/mL
MIC ([1]; read-out: MIC Alone, NARSA 1 (Hiramatsu)): 8 µg/mL
MIC ([1]; read-out: MIC Alone, NARSA 2 (Hiramatsu)): 3 µg/mL
MIC ([1]; read-out: MIC Alone, NARSA 12 (France)): 8 µg/mL
MIC ([1]; read-out: MIC Alone, NARSA 17 (New York)): 8 µg/mL
MIC ([1]; read-out: MIC Alone, NARSA 119 (Linezolid R)): 4 µg/mL
MIC ([1]; read-out: MIC Alone, NARSA 120 (Linezolid R)): 4 µg/mL
MIC ([1]; read-out: MIC Alone, NARSA 121 (Linezolid R)): 4 µg/mL
Survivors at 24 h (n = 10) ([2]; Group 2: Vancomycin 4.0 mg/kg alone iv): 4
Survivors at 24 h (n = 10) ([2]; Group 4: Vancomycin 2.0 mg/kg alone iv): 5
Mortality ([2]; vancomycin alone 2.0 mg/kg): 5 deaths
Mortality ([2]; vancomycin alone 4.0 mg/kg): 6 deaths
Liver, number of mice cleared ([3]; 10 mice): N/A (8 clear)
Spleen, number of mice cleared ([3]; 10 mice): 5
Liver, number of mice cleared ([3]; 10 mice, listed as vancomycin): 8
Kidney Log cfu/g of tissue ([3]; 48 hours): 6.53 ± 1.53 Log cfu/g of tissue
